Results from USRE49022E1, “Insecticidal compounds” (SYNGENTA PARTICIPATIONS AG, priority 2013, dated 2022).

Assays:
Assay type in all cases: in vivo
[1] = test system: Diabrotica balteata (Corn Root Worm); assay: Diabrotica balteata, artificial diet MTP test; conditions: 120 h, 200 ppm (concentration in well 18 ppm), L2 larvae, larval mortality after 5 days
How it was run: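 Artificial diet treated with test solution at 200 ppm application rate (18 ppm in well), dried, then infested with L2 larvae (6-10 per well). Larval mortality checked after 5 days of incubation.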

[2] = test system: Myzus persicae (Green Peach Aphid); assay: Myzus persicae, sunflower leaf disc spray test; conditions: foliar, 144 h, sprayed sunflower leaf discs, aphid population of mixed ages, mortality after 6 DAT
Procedure: Sunflower leaf discs were placed on agar in a 24-well microtiter plate and sprayed with test solutions at an application rate of 200 ppm. After drying, the leaf discs were infested with an aphid population of mixed ages. After an incubation period of 6 DAT, samples were checked for mortality.

[3] = test system: Myzus persicae (Green Peach Aphid); assay: Myzus persicae, sucrose solution / Parafilm test; conditions: 120 h, mixed with sucrose solution under Parafilm, mortality 5 days after infestation
How it was run: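 Compounds mixed into sucrose solution at 12.5 ppm, sealed under stretched Parafilm, with aphid-infested pea seedlings placed on the Parafilm and the plate inverted so aphids feed through the membrane. Mortality assessed 5 days after infestation.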

[4] = test system: Plutella xylostella (Diamond Back Moth); assay: Plutella xylostella, artificial diet MTP test; conditions: 144 h, 200 ppm (concentration in well 18 ppm), L2 larvae, 6 days
How it was run: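 Artificial diet treated at 200 ppm application rate (18 ppm in well), dried, then infested with 7–12 L2 larvae per well. Larval mortality and growth regulation assessed after 6 days.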

[5] = test system: Spodoptera littoralis (Egyptian Cotton Leafworm); assay: Spodoptera littoralis, cotton leaf disc spray test; conditions: foliar, 72 h, sprayed cotton leaf discs, L1 larvae, 3 days after treatment
Text: Cotton leaf discs were placed on agar in a 24-well microtiter plate and sprayed with test solutions at an application rate of 200 ppm. After drying, the leaf discs were infested with 5 L1 larvae. The samples were checked for mortality 3 days after treatment (DAT).

[6] = test system: Spodoptera littoralis (Egyptian Cotton Leaf Worm); assay: Spodoptera littoralis, agar / lettuce root uptake test; conditions: 144 h, mixed with agar, uptake by lettuce roots, mortality 6 days after infestation
Text: Test compounds were applied by pipette into 24 well plates and mixed with agar. Application rate: 12.5 ppm. Lettuce seeds were placed on the agar and the multi well plate is closed by another plate which contains also agar. After 7 days the roots have absorbed the compound and the lettuce has grown into the lid plate. The lettuce leafs were now cut off into the lid plate. Spodoptera eggs were pipetted through a plastic stencil on a humid gel blotting paper and the plate closed with it. The samples are checked for mortality 6 days after infestation.

[7] = test system: Tetranychus urticae (Two-Spotted Spider Mite); assay: Tetranychus urticae, bean leaf disc spray test; conditions: foliar, 192 h, sprayed bean leaf discs, mite populations of mixed ages, 8 days
Text: Bean leaf discs on agar in 24-well microtiter plates were sprayed with test solutions at an application rate of 200 ppm. After drying, the leaf discs are infested with mite populations of mixed ages. 8 days later, discs were checked for mortality.

[8] = test system: Thrips tabaci (Onion Thrips); assay: Thrips tabaci, sunflower leaf disc spray test; conditions: foliar, 168 h, sprayed sunflower leaf discs, mortality after 7 days

CCN(C(=O)c1ccncc1)c1cccc(C(=O)Nc2c(Br)cc(C(F)(C(F)(F)F)C(F)(F)Br)cc2OC(F)F)c1OC (stereo not drawn) [Compound 9]
≥ 80%: pest or weed control at 200 ppm [1] | pest or weed control at 200 ppm [2] | pest or weed control at 12.5 ppm [3] | mortality at 200 ppm [4] | mortality at 200 ppm [5] | pest or weed control at 12.5 ppm [6] | mortality at 200 ppm [7] | pest or weed control at 200 ppm [8]

CCN(C(=O)c1cc[n+]([O-])cc1)c1cccc(C(=O)Nc2c(Br)cc(C(F)(C(F)(F)F)C(F)(F)Cl)cc2OC(F)F)c1F (stereo not drawn) [Compound 43]
≥ 80%: pest or weed control at 200 ppm [1] | pest or weed control at 200 ppm [2] | pest or weed control at 12.5 ppm [3] | mortality at 200 ppm [4] | mortality at 200 ppm [5] | pest or weed control at 12.5 ppm [6] | mortality at 200 ppm [7] | pest or weed control at 200 ppm [8]

COc1c(NC(=O)c2ccncc2)cccc1C(=O)Nc1c(Cl)cc(C(F)(C(F)(F)F)C(F)(F)Br)cc1Br (stereo not drawn) [Compound 3, N-[3-[[2-bromo-4-[1-[bromo(difluoro)methyl]-1,2,2,2-tetrafluoro-ethyl]-6-chloro-phenyl]carbamoyl]-2-methoxy-phenyl]pyridine-4-carboxamide]
≥ 80%: pest or weed control at 200 ppm [1] | pest or weed control at 200 ppm [2] | pest or weed control at 12.5 ppm [3] | mortality at 200 ppm [4] | mortality at 200 ppm [5] | pest or weed control at 12.5 ppm [6] | mortality at 200 ppm [7] | pest or weed control at 200 ppm [8]

CCN(C(=O)c1ccc(C#N)cc1)c1cccc(C(=O)Nc2c(Br)cc(C(F)(C(F)(F)F)C(F)(F)Cl)cc2OC(F)F)c1OC (stereo not drawn) [Compound 32]
≥ 80%: pest or weed control at 200 ppm [1] | pest or weed control at 200 ppm [2] | pest or weed control at 12.5 ppm [3] | mortality at 200 ppm [4] | mortality at 200 ppm [5] | pest or weed control at 12.5 ppm [6] | mortality at 200 ppm [7] | pest or weed control at 200 ppm [8]

O=C(Nc1cccc(C(=O)Nc2c(Br)cc(C(F)(C(F)(F)F)C(F)(F)Br)cc2OC(F)F)c1F)c1ccncc1 (stereo not drawn) [Compound 4]
≥ 80%: pest or weed control at 200 ppm [1] | pest or weed control at 200 ppm [2] | pest or weed control at 12.5 ppm [3] | mortality at 200 ppm [4] | mortality at 200 ppm [5] | pest or weed control at 12.5 ppm [6] | mortality at 200 ppm [7] | pest or weed control at 200 ppm [8]

COc1c(NC(=O)c2ccc[n+]([O-])c2)cccc1C(=O)Nc1c(Br)cc(C(F)(C(F)(F)F)C(F)(F)Cl)cc1OC(F)F (stereo not drawn) [Compound 26]
≥ 80%: pest or weed control at 200 ppm [1] | pest or weed control at 200 ppm [2] | pest or weed control at 12.5 ppm [3] | mortality at 200 ppm [4] | mortality at 200 ppm [5] | pest or weed control at 12.5 ppm [6] | mortality at 200 ppm [7] | pest or weed control at 200 ppm [8]

CCc1cc(C(F)(C(F)(F)F)C(F)(F)Cl)cc(Br)c1NC(=O)c1cccc(NC(=O)c2cccnc2)c1OC (stereo not drawn) [Compound 21]
≥ 80%: pest or weed control at 200 ppm [1] | pest or weed control at 200 ppm [2] | pest or weed control at 12.5 ppm [3] | mortality at 200 ppm [4] | mortality at 200 ppm [5] | pest or weed control at 12.5 ppm [6] | mortality at 200 ppm [7] | pest or weed control at 200 ppm [8]

CCN(C(=O)c1ccc(C#N)cc1)c1cccc(C(=O)Nc2c(Br)cc(C(F)(C(F)(F)F)C(F)(F)Cl)cc2OC(F)F)c1F (stereo not drawn) [Compound 31]
≥ 80%: pest or weed control at 200 ppm [1] | pest or weed control at 200 ppm [2] | pest or weed control at 12.5 ppm [3] | mortality at 200 ppm [4] | mortality at 200 ppm [5] | pest or weed control at 12.5 ppm [6] | mortality at 200 ppm [7] | pest or weed control at 200 ppm [8]

CCN(C(=O)c1ccc(C#N)cc1)c1cccc(C(=O)Nc2c(Br)cc(C(F)(C(F)(F)F)C(F)(F)Br)cc2OC(F)F)c1F (stereo not drawn) [Compound 8]
≥ 80%: pest or weed control at 200 ppm [1] | pest or weed control at 200 ppm [2] | pest or weed control at 12.5 ppm [3] | mortality at 200 ppm [4] | mortality at 200 ppm [5] | pest or weed control at 12.5 ppm [6] | mortality at 200 ppm [7] | pest or weed control at 200 ppm [8]

O=C(Nc1cccc(C(=O)Nc2c(Br)cc(C(F)(C(F)(F)F)C(F)(F)Cl)cc2OC(F)F)c1F)c1ccncc1 (stereo not drawn) [Compound 11]
≥ 80%: pest or weed control at 200 ppm [1] | pest or weed control at 200 ppm [2] | pest or weed control at 12.5 ppm [3] | mortality at 200 ppm [4] | mortality at 200 ppm [5] | pest or weed control at 12.5 ppm [6] | mortality at 200 ppm [7] | pest or weed control at 200 ppm [8]

O=C(Nc1cccc(C(=O)Nc2c(Br)cc(C(F)(C(F)(F)F)C(F)(F)Cl)cc2OC(F)F)c1F)c1cccnc1 (stereo not drawn) [Compound 12]
≥ 80%: pest or weed control at 200 ppm [1] | pest or weed control at 200 ppm [2] | pest or weed control at 12.5 ppm [3] | mortality at 200 ppm [4] | mortality at 200 ppm [5] | pest or weed control at 12.5 ppm [6] | mortality at 200 ppm [7] | pest or weed control at 200 ppm [8]

CCN(C(=O)c1cccnc1)c1cccc(C(=O)Nc2c(Br)cc(C(F)(C(F)(F)F)C(F)(F)Cl)cc2OC(F)F)c1F (stereo not drawn) [Compound 39]
≥ 80%: pest or weed control at 200 ppm [1] | pest or weed control at 200 ppm [2] | pest or weed control at 12.5 ppm [3] | mortality at 200 ppm [4] | mortality at 200 ppm [5] | pest or weed control at 12.5 ppm [6] | mortality at 200 ppm [7] | pest or weed control at 200 ppm [8]

CCN(C(=O)c1ccc(C#N)cc1)c1cccc(C(=O)Nc2c(Br)cc(C(F)(C(F)(F)F)C(F)(F)Br)cc2OC(F)F)c1OC (stereo not drawn) [Compound 10]
≥ 80%: pest or weed control at 200 ppm [1] | pest or weed control at 200 ppm [2] | pest or weed control at 12.5 ppm [3] | mortality at 200 ppm [4] | mortality at 200 ppm [5] | pest or weed control at 12.5 ppm [6] | mortality at 200 ppm [7] | pest or weed control at 200 ppm [8]

COc1c(NC(=O)c2cccnc2)cccc1C(=O)Nc1c(Br)cc(C(F)(C(F)(F)F)C(F)(F)Cl)cc1OC(F)F (stereo not drawn) [Compound 15]
≥ 80%: pest or weed control at 200 ppm [1] | pest or weed control at 200 ppm [2] | pest or weed control at 12.5 ppm [3] | mortality at 200 ppm [4] | mortality at 200 ppm [5] | pest or weed control at 12.5 ppm [6] | mortality at 200 ppm [7] | pest or weed control at 200 ppm [8]

N#Cc1ccc(C(=O)Nc2cccc(C(=O)Nc3c(Br)cc(C(F)(C(F)(F)F)C(F)(F)Br)cc3OC(F)F)c2F)cc1 (stereo not drawn) [Compound 5]
≥ 80%: pest or weed control at 200 ppm [1] | pest or weed control at 200 ppm [2] | pest or weed control at 12.5 ppm [3] | mortality at 200 ppm [4] | mortality at 200 ppm [5] | pest or weed control at 12.5 ppm [6] | mortality at 200 ppm [7] | pest or weed control at 200 ppm [8]
